According to the Kinase Knowledgebase extract (Sharma et al. 2016):

Biological target: EGFR (UniProt P00533)
Conditions: her-14

EGFR, sequence (P00533 whole entry, looked up): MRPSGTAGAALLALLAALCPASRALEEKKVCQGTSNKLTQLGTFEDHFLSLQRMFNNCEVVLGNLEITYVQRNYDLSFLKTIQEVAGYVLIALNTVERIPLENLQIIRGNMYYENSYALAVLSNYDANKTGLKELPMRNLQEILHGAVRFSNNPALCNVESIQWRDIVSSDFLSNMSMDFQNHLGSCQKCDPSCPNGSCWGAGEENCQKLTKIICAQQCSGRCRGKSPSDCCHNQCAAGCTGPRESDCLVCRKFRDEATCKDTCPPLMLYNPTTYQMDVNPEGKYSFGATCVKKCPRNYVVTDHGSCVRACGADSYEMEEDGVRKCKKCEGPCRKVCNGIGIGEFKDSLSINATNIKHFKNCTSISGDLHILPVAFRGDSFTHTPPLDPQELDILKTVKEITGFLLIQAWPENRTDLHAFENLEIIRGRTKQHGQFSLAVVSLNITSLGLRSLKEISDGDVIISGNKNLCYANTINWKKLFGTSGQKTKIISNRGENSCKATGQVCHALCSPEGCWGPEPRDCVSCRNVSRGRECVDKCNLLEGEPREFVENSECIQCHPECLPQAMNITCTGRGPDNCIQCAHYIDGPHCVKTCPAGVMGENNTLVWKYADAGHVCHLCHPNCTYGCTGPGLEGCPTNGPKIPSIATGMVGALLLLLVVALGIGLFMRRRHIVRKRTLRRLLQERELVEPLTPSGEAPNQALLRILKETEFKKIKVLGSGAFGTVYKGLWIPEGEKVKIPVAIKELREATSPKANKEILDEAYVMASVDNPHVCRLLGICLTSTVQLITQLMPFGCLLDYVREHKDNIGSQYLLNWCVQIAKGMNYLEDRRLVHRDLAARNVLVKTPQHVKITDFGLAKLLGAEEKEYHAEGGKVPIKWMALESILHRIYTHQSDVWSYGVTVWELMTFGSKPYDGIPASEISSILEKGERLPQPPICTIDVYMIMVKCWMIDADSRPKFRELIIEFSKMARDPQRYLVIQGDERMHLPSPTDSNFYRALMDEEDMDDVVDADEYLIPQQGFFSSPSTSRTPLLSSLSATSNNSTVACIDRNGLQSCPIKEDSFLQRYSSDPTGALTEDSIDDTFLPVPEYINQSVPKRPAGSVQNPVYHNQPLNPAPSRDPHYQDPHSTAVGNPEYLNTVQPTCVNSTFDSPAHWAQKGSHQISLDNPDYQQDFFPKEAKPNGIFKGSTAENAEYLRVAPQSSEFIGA

Row | SMILES | IC50 [µM]
1 | N#C/C(=C\c1ccc(O)c(O)c1)C(=O)NCCCN1CCN(CCCNC(=O)/C(C#N)=C/c2ccc(O)c(O)c2)CC1 | 7
2 | N#C/C(=C\c1ccc(O)c(O)c1)C(=O)NCCCCCCCCCCNC(=O)/C(C#N)=C/c1ccc(O)c(O)c1 | 25
3 | COc1cc(/C=C(\C#N)C(=O)NCCCCNC(=O)/C(C#N)=C/c2cc(OC)c(O)c([N+](=O)[O-])c2)cc([N+](=O)[O-])c1O | > 80
4 | N#C/C(=C\c1ccc(O)c(O)c1)C(=O)NCc1cccc(CNC(=O)/C(C#N)=C/c2ccc(O)c(O)c2)c1 | 6
5 | N#C/C(=C\c1ccc(O)c(O)c1)C(=O)NCCCCCNC(=O)/C(C#N)=C/c1ccc(O)c(O)c1 | 9
6 | N#C/C(=C\c1ccc(O)c(O)c1)C(=O)NC1CCC(CC2CCC(NC(=O)/C(C#N)=C/c3ccc(O)c(O)c3)CC2)CC1 (centres undefined) | 20.3
7 | N#C/C(=C\c1cc(O)c(O)c([N+](=O)[O-])c1)C(=O)NCCCNC(=O)/C(C#N)=C/c1cc(O)c(O)c([N+](=O)[O-])c1 | 35
8 | N#C/C(=C\c1ccc(O)c(O)c1)C(=O)NCCNC(=O)/C(C#N)=C/c1ccc(O)c(O)c1 | 10
9 | N#C/C(=C\c1ccc(O)c(O)c1)C(=O)N1CCN(C(=O)/C(C#N)=C/c2ccc(O)c(O)c2)CC1 | 10
10 | N#C/C(=C\c1cc(O)c(O)c(Br)c1)C(=O)NCCCNC(=O)/C(C#N)=C/c1cc(O)c(O)c(Br)c1 | 7.3
11 | N#C/C(=C\c1ccc(O)c(O)c1)C(=O)NCCN1CCN(C(=O)/C(C#N)=C/c2ccc(O)c(O)c2)CC1 | 6.2
12 | N#C/C(=C\c1ccc(O)c(O)c1)C(=O)NCC1CCCC(CNC(=O)/C(C#N)=C/c2ccc(O)c(O)c2)C1 (centres undefined) | 12.5

Stronger by IC50, values ahead:

Row | IC50 [µM] | SMILES
13 | 2 | N#C/C(=C\c1ccc(O)c(O)c1)S(=O)(=O)/C(C#N)=C/c1ccc(O)c(O)c1
14 | 4 | N#C/C(=C\c1ccc(O)c(O)c1)C(=O)NC1CCCCC1NC(=O)/C(C#N)=C/c1ccc(O)c(O)c1 (centres undefined)
15 | 5 | N#C/C(=C\c1ccc(O)c(O)c1)C(=O)NCCCCCCNC(=O)/C(C#N)=C/c1ccc(O)c(O)c1
16 | 3 | COc1cc(/C=C(\C#N)C(=O)NCCCCNC(=O)/C(C#N)=C/c2cc(Br)c(O)c(OC)c2)cc(Br)c1O
17 | 5 | N#C/C(=C\c1ccc(O)c(O)c1)C(=O)NCCCCNC(=O)/C(C#N)=C/c1ccc(O)c(O)c1
18 | 5.8 | N#C/C(=C\c1ccc(O)c(O)c1)C(=O)NCN1CCN(C(=O)/C(C#N)=C/c2ccc(O)c(O)c2)CC1
19 | 5 | N#C/C(=C\c1cc(O)c(O)c(O)c1)C(=O)NCCCCNC(=O)/C(C#N)=C/c1cc(O)c(O)c(O)c1
